Source: patent publication US20100041665A1, “N-PHENYL-PRENYLAMINE DERIVATIVES FOR THE TREATMENT OF COGNITIVE, NEURODEGENERATIVE OR NEURONAL DISEASES OR DISORDERS” (NOSCIRA, S.A., priority 2006, published 2010)

Experiments:
[1] = molecular target: T1, rhBACE-1 β-Secretase recombinant human (Homo sapiens, UniProt P56817); test: BACE assay (FRET); format: biochemical; conditions: percentage of enzyme activity
T1 construct: purchased R&D Systems 931-AS
From the text: The aim of this assay is to determine if a compound, either synthetic or of marine origin, is a BACE-1 inhibitor, to avoid the formation of Aβ. This assay is based on FRET technology (Fluorescence Resonance Energy Transfer). FRET is used to measure cleavage of a peptide substrate, among other uses. […] When a substrate peptide cleavage occurs, the energy balance is broken and all the donor fluorescence can be observed. The increase in fluorescence is linearly related to the rate of proteolysis (Gordon, G W et al., 1998). In this assay the reaction occurs between an enzyme, purified BACE-1, and a fluorogenic peptidic substrate who present the “Swedish mutation”. The peptide cleavage by BACE-1 produces fluorescence energy and enzymatic activity can be quantified.
The reagents which are used in this assay are the following: • rhBACE-1 β-Secretase recombinant human (R&D Systems. Ref. 931-AS). • Fluorogenic Peptide Substrate IV (R&D Systems. Ref. ES004). • Beta-SECRETASE INHIBITOR H-4848. (BACHEM. Ref. H-4848.0001). • Sodium acetate.
The assay is carried out in a 96 wells microplate. The final concentration of substrate is 3.5 μM per well, and the enzyme concentration is 0.5 μg/ml. The final volume of the assay is 100 μl per well and all reagents are diluted in Reaction Buffer. The compounds are tested at a concentration of 10^−5 and 10^−6 M. The control in the assay is the commercial inhibitor β-Secretase inhibitor H-4848 from BACHEM, which is tested at 300 nM. All the samples and controls are studied by duplicate.
The plate is mixed gently and changes in the fluorescence are measured using a fluorimeter plate reader, with 320 nm excitation filter and 405 nm emission filter. The temperature should be preferably maintained between 25 and 30° C. Measurements are carried out every ten minutes during an hour. The first measure is subtracted from the last to calculate the fluorescence increase, evaluating the enzymatic activity. The 100% activity is calculated as the mean of the results of wells without sample or inhibitor.
In the cases where abnormal effects in fluorescence were detected, BACE inhibition activity was assayed using BACE-1 (beta-Secretase) FRET ASSAY KIT (Invitrogen, Ref. P2985). Fluorescence was measured with a fluorimeter plate reader, with 544 nm excitation filter and 580 nm emission filter.
(§1) The compounds of formula (I) of the present invention where submitted to the above indicated assays, in order to determine both their GSK-3 inhibition activity and BACE activity inhibition. The results are indicated in Table I and Table II, in percentage of the respective enzyme activity.

[2] = molecular target: Recombinant human glycogen synthase kinase 3 beta (Homo sapiens, UniProt P49841); test: GSK-3 beta inhibition assay; format: biochemical; conditions: 0.5 h, percentage of enzyme activity; for remaining activity at 25 µM: compound at 25 μM; for remaining activity at 50 µM: compound at 50 μM
Method: GSK-3 beta Inhibition Assay
The GSK-3 beta activity of the compounds of formula (I) according to the present invention was determined by incubation of a mixture of recombinant human GSK-3 enzyme, a phosphate source and GSK-3 substrate in the presence and in the absence of the corresponding test compound, and by measuring the GSK-3 activity of this mixture. The compounds where tested at final concentrations of 25 and 50 μM.
Recombinant human glycogen synthase kinase 3 beta was assayed in MOPS 11 mM, pH 7.4, EDTA 0.2 mM, EGTA 1.25 mM, MgCl2 26.25 mM and sodium orthovanadate 0.25 mM in the presence of 62.5 μM of Phospho-Glycogen Synthase Peptide-2 (GS-2), 0.5 μCi gamma-^33P-ATP and unlabelled ATP at a final concentration of 12.5 μM. The final assay volume was 20 μl. After incubation for 30 minutes at 30° C., 15 μl aliquots were spotted onto P81 phosphocellulose papers. Filters were washed four times for at least 10 minutes each and counted with 1.5 ml of scintillation cocktail in a scintillation counter.
as §1

T1 sequence (P56817 46-457 limits assumed): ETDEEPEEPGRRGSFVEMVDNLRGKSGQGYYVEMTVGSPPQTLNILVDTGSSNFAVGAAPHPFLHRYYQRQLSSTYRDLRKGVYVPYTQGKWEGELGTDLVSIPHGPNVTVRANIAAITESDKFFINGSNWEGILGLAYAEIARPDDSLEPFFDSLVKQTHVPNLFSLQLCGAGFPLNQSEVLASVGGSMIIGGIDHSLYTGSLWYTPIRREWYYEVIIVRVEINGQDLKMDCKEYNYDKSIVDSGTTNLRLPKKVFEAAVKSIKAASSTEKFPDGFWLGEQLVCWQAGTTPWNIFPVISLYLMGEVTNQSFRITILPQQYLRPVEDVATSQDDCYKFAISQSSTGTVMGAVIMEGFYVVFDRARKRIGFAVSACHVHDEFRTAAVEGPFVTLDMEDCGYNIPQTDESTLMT
Chain of Recombinant human glycogen synthase kinase 3 beta (P49841 whole entry): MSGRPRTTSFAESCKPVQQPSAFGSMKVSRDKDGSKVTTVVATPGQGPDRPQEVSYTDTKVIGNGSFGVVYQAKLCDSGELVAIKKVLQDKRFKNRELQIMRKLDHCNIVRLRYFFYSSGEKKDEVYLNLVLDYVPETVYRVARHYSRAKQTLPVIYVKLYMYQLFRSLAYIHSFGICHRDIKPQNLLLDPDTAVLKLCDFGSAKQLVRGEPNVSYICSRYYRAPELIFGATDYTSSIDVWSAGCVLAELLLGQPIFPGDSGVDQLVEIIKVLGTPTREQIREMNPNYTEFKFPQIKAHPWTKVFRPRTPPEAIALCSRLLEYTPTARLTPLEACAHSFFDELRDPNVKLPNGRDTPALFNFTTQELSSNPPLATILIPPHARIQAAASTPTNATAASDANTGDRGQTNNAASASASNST

| Compound | % of BACE activity ([1]; compound at 1 μM) | % of BACE activity ([1]; compound at 10 μM) | remaining activity at 25 µM [2] | remaining activity at 50 µM [2] |
| --- | --- | --- | --- | --- |
| COC(=O)c1cccc(N(CC=C(C)CCC=C(C)C)CC=C(C)CCC=C(C)C)c1 [Compound 20, 3-[Bis-(3,7-dimethyl-octa-2,6-dienyl)-amino]-benzoic acid methyl ester] | 76 ± 25% | 3 ± 5% | 67.3% | 36.2% |
| COc1ccc(C(=O)N2CCN(CC=Cc3ccccc3)CC2)cc1N(CC=C(C)CCC=C(C)C)CC=C(C)CCC=C(C)C [Compound 38, {3-[Bis-(3,7-dimethyl-octa-2,6-dienyl)-amino]-4-methoxy-phenyl}-[4-(3-phenyl-allyl)-piperazin-1-yl]-methanone] | 81.5 ± 9% | 35 ± 10% | 23.6% | 2.51% |
| COc1ccc(C(=O)O)cc1NC/C=C(\C)CC/C=C(\C)CCC=C(C)C [Compound 5] | 50 ± 9% | 0% | 70.2% | 52.8% |
| COC(=O)c1ccc(OC)c(N(CC=C(C)CCC=C(C)CCC=C(C)C)C(=O)OC(C)(C)C)c1 [Compound 33, 3-[tert-Butoxycarbonyl-(3,7,11-trimethyl-dodeca-2,6,10-trienyl)-amino]-4-methoxy-benzoic acid methyl ester] | 92 ± 4% | 61 ± 17% | 27.9% | 19.8% |
| COC(=O)c1ccc(OC)c(N(CC=C(C)CCC=C(C)CCC=C(C)CCC=C(C)C)CC=C(C)CCC=C(C)CCC=C(C)CCC=C(C)C)c1 [Compound 35, 3-[Bis-(3,7,11,15-tetramethyl-hexadeca-2,6,10,14-tetraenyl)-amino]-4-methoxy-benzoic acid methyl ester] | 91 ± 9% | 41 ± 14% | 105% | 97.9% |
| COC(=O)c1cccc(NC/C=C(\C)CC/C=C(\C)CCC=C(C)C)c1 [Compound 7] | 0% | 0% | – | 54.7% |
| CCCOc1ccc(C(=O)OC)cc1NC/C=C(\C)CC/C=C(\C)CCC=C(C)C [Compound 43] | 88.3 ± 3.8% | 27.5 ± 9.2% | 103% | 98.2% |
| COC(=O)c1ccc(OC)c(N(CC=C(C)CCC=C(C)COC2CCCCO2)CC=C(C)CCC=C(C)COC2CCCCO2)c1 (stereo not shown) [Compound 37, 3-{Bis-[3,7-dimethyl-8-(tetrahydro-pyran-2-yloxy)-octa-2,6-dienyl]-amino}-4-methoxy-benzoic acid methyl ester] | 50 ± 4% | 6.5 ± 1% | 24.6% | 1.71% |
| COc1ccc(C(=O)O)cc1N(CC=C(C)CCC=C(C)CCC=C(C)C)CC=C(C)CCC=C(C)CCC=C(C)C [Compound 19, 3-[Bis-(3,7,11-trimethyl-dodeca-2,6,10-trienyl)-amino]-4-methoxy-benzoic acid] | 60 ± 14% | 46 ± 28% | 30.6% | 15.3% |
| CC(C)=CCC/C(C)=C/CC/C(C)=C/CNc1cccc(C(=O)O)c1 [Compound 9] | 89.5 ± 9% | 25.5 ± 6% | 84.1% | 39.6% |
| CC(C)=CCCC(C)=CCNc1cccc(C(=O)O)c1 [Compound 13, 3-(3,7-Dimethyl-octa-2,6-dienylamino)-benzoic acid] | 75 ± 5% | 70 ± 19% | 55.5% | 35.5% |
